Source: publication PMC4541407 (2015)

Legend:
[1] = test system: c-MYC (NMR oligonucleotide) (DNA, G4) TGAGGGTGGGTAGGGTGGGTAA; assay: 1H NMR imino titration
[2] = test system: c-MYC (dual labelled) (DNA, G4) TGAGGGTGGGTAGGGTGGGTAA; assay: FRET melting
[3] = test system: c-MYC (DNA, G4) TGAGGGTGGGTAGGGTGGGTAA; assay: fluorescence titration; conditions: 100 mM Tris-HCl pH 7.4, 25 °C; for KD: 100 mM K+, 1.0 µM ligand, DNA 0-6 equiv
[4] = test system: c-KIT2 (dual labelled) (DNA, G4) GGGCGGGCGCGAGGGAGGGG; assay: FRET melting
[5] = test system: c-KIT1 (dual labelled) (DNA, G4) GGGAGGGCGCTGGGAGGGAGGG; assay: FRET melting
[6] = test system: ds DNA (dual labelled) (DNA, duplex) CCAGTTCGTAGTAACCC/GGGTTACTACGAACTGG; assay: FRET melting; conditions: 50 mM K+, 50 mM potassium cacodylate pH 7.4
[7] = test system: c-KIT1 (DNA, G4) GGGAGGGCGCTGGGAGGGAGGG; assay: fluorescence titration; conditions: 100 mM K+; 100 mM Tris-HCl pH 7.4, 25 °C; 1.0 µM ligand, DNA 0-6 equiv
[8] = test system: ds DNA (DNA, duplex) CCAGTTCGTAGTAACCC/GGGTTACTACGAACTGG; assay: fluorescence titration; conditions: 100 mM K+; 100 mM Tris-HCl pH 7.4, 25 °C; 1.0 µM ligand, DNA 0-6 equiv
[9] = test system: c-KIT2 (DNA, G4) GGGCGGGCGCGAGGGAGGGG; assay: fluorescence titration; conditions: 100 mM K+; 100 mM Tris-HCl pH 7.4, 25 °C; 1.0 µM ligand, DNA 0-6 equiv
[10] = 50 mM K+, 50 mM potassium cacodylate pH 7.4, 1.0 µM ligand

Structure (SMILES) | binding ([1]; 100 mM K+, 25 mM Tris-HCl pH 7.4, stabilizes minor conformation(s)) | binding [2, 10] | KD [3] [µM] | binding [4, 10] | binding [5, 10] | binding ([6]; 1.0 µM ligand) | binding ([1]; 100 mM K+, 25 mM Tris-HCl pH 7.4, 298 K, 100 µM DNA, binds minor conformation) | binding ([1]; no added K+, 25 mM Tris-HCl pH 7.4, 298 K, 100 µM DNA, binds minor conformation) | KD [7] [µM] | Kd [8] [µM] | ΔTm ([4]; 50 mM K+, 50 mM potassium cacodylate pH 7.4, 500 nM ligand, maximum measurable shift) [K] | binding ([4]; no added K+, MQ water pH 7.4, saturation at 750 nM ligand) | ΔTm ([2]; 50 mM K+, 50 mM potassium cacodylate pH 7.4, 100 nM ligand, maximum measurable shift) [K] | binding ([2]; no added K+, MQ water pH 7.4, saturation at 250 nM ligand) | ΔTm ([5]; 50 mM K+, 50 mM potassium cacodylate pH 7.4, 750 nM ligand, maximum measurable shift) [K] | binding ([5]; no added K+, MQ water pH 7.4, saturation at 1 µM ligand) | binding ([3]; no added K+, 5.5-fold enhancement, 25 nm blue shift, Kd n.d.) | binding ([6]; up to 1.0 µM ligand) | KD [9] [µM]
CN(C)CCCn1c2ccc(-c3cn(-c4ccc(N)cc4)nn3)cc2c2cc(-c3cn(-c4ccc(N)cc4)nn3)ccc21 | yes | yes | > 20 | – | – | – | – | – | – | – | – | – | – | – | – | – | – | – | –
C#Cc1ccc2c(c1)c1cc(C#C)ccc1n2CCCN(C)C | – | no | – | no | no | no | – | – | – | – | – | – | – | – | – | – | – | – | –
CN(C)CCCNC(=O)c1ccc(-n2cc(-c3ccc4c(c3)c3cc(-c5cn(-c6ccc(C(=O)NCCCN(C)C)cc6)nn5)ccc3n4CCCN(C)C)nn2)cc1 | – | – | 0.3 ± 0.015 | – | – | – | yes | yes | 1.38 ± 0.07 | > 10.0 | 23.2 ± 1.6 | yes | 22.7 ± 1.4 | yes | 39.4 ± 2.5 | yes | yes | no | 1.37 ± 0.06
